From patent US20040215284A1, “Treatment of neuromuscular dysfunction of the lower urinary tract with selective mGlu5 antagonists” (Recordati S.A., priority 2003, published 2004)

Columns and labels:
[1] = system: rhythmic bladder-voiding contractions in anaesthetised rats; test: Rhythmic bladder-voiding contractions induced by bladder filling in anaesthetised rats; assay type: in vivo, rat; settings: for BLADDER CONTRACTIONS quiescence time: mean ± SEM; for ED10min (extrapolated dose inducing 10 min of bladder quiescence): linear regression
Method: The animals were housed with free access to food and water and maintained on a forced 12-hour alternating light-dark cycle at 22-24° C. for at least one week, except during the experiment. […] The catheter was tied in place with a ligature around the external urethral orifice and was connected to conventional pressure transducers (Statham P23 ID/P23 XL). […] The bladder was then filled via the recording catheter by incremental volumes of warm (37° C.) saline until reflex bladder-voiding contractions occurred (usually 0.8-1.5 ml). For intravenous injection of bioactive compounds, PE 50 polyethylene tubing filled with physiological saline was inserted into the jugular vein.
From the cystometrogram, the number of contractions recorded 15 minutes before (basal values) and after treatment, as well as the mean amplitude of these contractions (mean height of the peaks in mmHg), were evaluated.
Morphine was tested, too, as a reference standard for this model.

mGlu5 [2] = biological target: T1, mGlu5 (Rattus norvegicus, UniProt P31424); settings: rat forebrain
T1 sequence (P31424 21-1203): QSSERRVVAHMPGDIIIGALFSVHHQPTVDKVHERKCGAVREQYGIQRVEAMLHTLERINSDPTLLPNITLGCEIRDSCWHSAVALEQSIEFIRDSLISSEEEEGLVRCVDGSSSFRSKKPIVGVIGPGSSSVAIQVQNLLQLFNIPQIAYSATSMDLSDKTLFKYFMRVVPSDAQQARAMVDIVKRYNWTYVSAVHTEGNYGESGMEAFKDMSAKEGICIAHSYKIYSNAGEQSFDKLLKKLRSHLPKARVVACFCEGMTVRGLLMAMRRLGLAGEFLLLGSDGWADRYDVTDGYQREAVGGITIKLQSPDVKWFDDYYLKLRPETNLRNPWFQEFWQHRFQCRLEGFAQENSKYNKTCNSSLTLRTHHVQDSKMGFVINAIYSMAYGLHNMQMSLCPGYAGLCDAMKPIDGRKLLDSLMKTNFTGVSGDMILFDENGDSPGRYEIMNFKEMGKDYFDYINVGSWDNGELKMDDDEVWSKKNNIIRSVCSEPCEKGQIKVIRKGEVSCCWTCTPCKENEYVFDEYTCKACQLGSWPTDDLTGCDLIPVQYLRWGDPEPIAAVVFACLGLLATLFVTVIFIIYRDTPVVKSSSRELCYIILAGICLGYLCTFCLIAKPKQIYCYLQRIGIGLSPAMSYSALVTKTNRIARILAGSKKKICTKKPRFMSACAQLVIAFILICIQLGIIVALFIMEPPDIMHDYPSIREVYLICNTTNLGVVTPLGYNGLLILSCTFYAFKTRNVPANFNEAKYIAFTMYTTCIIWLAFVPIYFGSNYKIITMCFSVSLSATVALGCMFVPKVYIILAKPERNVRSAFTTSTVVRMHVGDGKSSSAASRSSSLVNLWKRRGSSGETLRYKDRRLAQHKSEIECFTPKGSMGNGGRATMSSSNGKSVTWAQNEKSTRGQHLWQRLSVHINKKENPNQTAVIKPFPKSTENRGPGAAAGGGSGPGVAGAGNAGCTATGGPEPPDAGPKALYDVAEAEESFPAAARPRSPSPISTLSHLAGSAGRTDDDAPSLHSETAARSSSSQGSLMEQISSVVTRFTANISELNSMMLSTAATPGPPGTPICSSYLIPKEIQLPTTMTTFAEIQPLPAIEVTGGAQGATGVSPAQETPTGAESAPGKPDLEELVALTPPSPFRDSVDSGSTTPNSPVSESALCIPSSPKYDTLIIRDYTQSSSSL
Method: (§1) Male Sprague Dawley rats (200-300 g, Charles River, Italy) were killed by cervical dislocation and the forebrain (cortex, striatum and hippocampus) and cerebellum were homogenized (2×20 sec) in 50 vols of cold 50 mM Tris buffer pH 7.4, using a Politron homogenizer (Kinematica). […] The final pellets were frozen and stored at −80° C. until use.
(§2) ii) mGlu5: On experimental section pellets from rat forebrain were resuspended in 100 vols of 20 mM HEPES, 2 mM MgCl2, 2 mM CaCl2, pH 7.4.
(§3) The filters were then washed with cold buffer and the radioactivity retained on the filters was counted by liquid scintillation spectrometry.
(§4) Data were expressed as the mean of pKi(−log Ki)±SE.

mGlu1 = biological target: T2, mGlu1 (Rattus norvegicus, UniProt P23385); test: Radioligand binding assay at mGlu1, [3H]quisqualic acid, rat cerebellum membranes; settings: [3H]quisqualic acid
T2 construct: pellets from rat cerebellum were resuspended; from tissue; host or cells: rat cerebellum membranes (male Sprague Dawley)
Method: as §1
i) mGlu1: On experimental section pellets from rat cerebellum were resuspended in 150-200 vols of 20 mM N-2-hydroxyethylpiperazine-N′-2-ethanesulfonic acid (HEPES), 2 mM MgCl2, 2 mM CaCl2, pH 7.4.
as §3, §4

[3] = biological target: Group II (mGlu2 + mGlu3) receptors; test: Radioligand binding assay at Group II (mGlu2+mGlu3), [3H]LY341495, rat forebrain membranes
Method: as §1
iii) Group II (mGlu2+mGlu3): On experimental section pellets from rat forebrain were resuspended in 250 vols of 20 mM HEPES, 2 mM MgCl2, 2 mM CaCl2, pH 7.4. The membranes were incubated in a final volume of 1 ml for 30 min at 0° C. with 1 nM [^3H]LY341495 in the absence or presence of competing drugs.
as §3, §4

conscious rats = test: Cystometric parameters in conscious rats (bladder infused with saline); assay type: in vivo, rat
Method: Male Sprague-Dawley rats [Crl: CD® (SD) IGS BR] of 300-400 g b.w. supplied by Charles River Italia were used. The animals were housed with free access to food and water and maintained on a forced 12-hour-light/12-hour-dark cycle at 22-24° C. of temperature, except during the experiment. To quantify urodynamic parameters in conscious rats, cystometrographic studies were performed according to the procedure previously reported (Guarneri et al., Pharmacol. Res. 24: 75, 1991).
Briefly, the rats were anaesthetized by intraperitoneal administration of 3 ml/kg of Equithensin solution (pentobarbital 30 mg/kg and chloral hydrate 125 mg/kg) and placed in a supine position. An approximately 10 mm long midline incision was made in the shaved and cleaned abdominal wall. The urinary bladder was gently freed from adhering tissues, emptied and then cannulated via an incision in the bladder body, using a polyethylene cannula (0.58 mm internal diameter, 0.96 mm external diameter) which was permanently sutured with silk thread. For intravenous bolus injection, a similar polyethylene tubing filled with physiological saline containing sodium heparin (40 I.U./ml) was inserted into the jugular vein. The cannulae were exteriorized through a subcutaneous tunnel in the retroscapular area, where they were connected to a plastic adapter in order to avoid the risk of removal by the animal. For drug testing, the rats were utilized one day after implantation.
On the day of the experiment, the rats were placed in modified Bollman cages, i.e., restraining cages that were large enough to permit the rats to adopt a normal crouched posture, but narrow enough to prevent turning around. After a stabilization period of about 20 minutes, the free tip of the bladder cannula was connected through a T-shaped tube to a pressure transducer (Statham P23XL) and to a peristaltic pump (Gilson minipuls 2) for continuous infusion of a warm (37° C.) saline solution into the urinary bladder, at a constant rate of 0.1 ml/minute. The intraluminal-pressure signal during infusion of saline into the bladder was continuously recorded on a polygraph (Rectigraph-8K San-ei with BM614/2 amplifier from Biomedica Mangoni) and, from the cystometrogram, two urodynamic parameters were evaluated: bladder volume capacity (BVC) and micturition pressure (MP). BVC (in ml) is defined as the volume of saline infused into the bladder necessary to induce detrusor contraction followed by micturition. MP (in mmHg) is defined as the maximal intravesical pressure caused by contraction during micturition. Basal BVC and MP values were evaluated as the mean of the values observed in the cystometrograms recorded in an initial period of 30-60 minutes. At this point in the assay, the infusion was interrupted and the test compounds were administered either intravenously by the jugular catheter or orally by a stomach tube. The bladder infusion restarted and changes in BVC and MP were evaluated from the mean values obtained in the cystometrograms observed during 1, 2, 3, 4, and 5 hours after treatment. The compounds were administered in a volume of 1 ml/kg and 2 ml/kg for intravenous and oral administration routes, respectively. Groups of control animals received the same amount of vehicle corresponding to a solution of 8% dimethylformamide and 8% Tween 80 in water (final concentrations) for intravenous, or a solution of 0.5% methocel in water for oral route.
Under the given test conditions, measurement of BVC is equivalent to measurement of interval time between micturitions.
All data were expressed as mean±standard error. The percent changes of BVC and MP relative to the basal values, as well as Δ values (difference in ml or in mmHg) of BVC and MP (BVC or MP at time “x” minus basal value), were also evaluated for each rat/time. In the figures, data were reported as percentage changes relative to basal values. […]

mGlu1a = mGlu1a (Homo sapiens, UniProt Q13255); settings: literature, functional models; cited from earlier work
mGlu5a = mGlu5a (Homo sapiens, UniProt P41594); settings: literature, functional models; cited from earlier work
mGlu2 = mGlu2 (Homo sapiens, UniProt Q14416); settings: literature, functional models; cited from earlier work
Chain of mGlu2 (Q14416 19-872): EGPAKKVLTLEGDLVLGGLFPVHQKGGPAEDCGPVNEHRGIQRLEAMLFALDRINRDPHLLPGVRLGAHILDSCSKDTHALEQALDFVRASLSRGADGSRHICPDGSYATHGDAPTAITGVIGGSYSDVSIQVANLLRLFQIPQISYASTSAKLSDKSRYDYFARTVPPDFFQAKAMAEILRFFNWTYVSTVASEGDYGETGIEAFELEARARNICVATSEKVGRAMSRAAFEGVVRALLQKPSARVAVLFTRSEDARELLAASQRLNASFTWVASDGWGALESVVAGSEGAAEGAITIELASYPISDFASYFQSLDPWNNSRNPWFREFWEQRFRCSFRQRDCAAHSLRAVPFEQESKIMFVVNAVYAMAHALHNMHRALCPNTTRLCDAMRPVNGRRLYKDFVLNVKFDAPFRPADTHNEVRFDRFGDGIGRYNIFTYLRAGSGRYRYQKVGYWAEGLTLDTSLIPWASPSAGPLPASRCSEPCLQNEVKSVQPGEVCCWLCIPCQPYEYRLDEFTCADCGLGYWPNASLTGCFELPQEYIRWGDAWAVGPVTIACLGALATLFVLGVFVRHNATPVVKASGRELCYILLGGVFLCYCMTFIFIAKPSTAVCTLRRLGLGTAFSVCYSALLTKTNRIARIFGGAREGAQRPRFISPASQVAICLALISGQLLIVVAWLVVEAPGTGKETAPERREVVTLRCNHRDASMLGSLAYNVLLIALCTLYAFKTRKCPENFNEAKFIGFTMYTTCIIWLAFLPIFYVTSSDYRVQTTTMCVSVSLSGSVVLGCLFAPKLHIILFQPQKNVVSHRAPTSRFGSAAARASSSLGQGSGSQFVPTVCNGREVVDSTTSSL

mGlu4a = mGlu4a (Homo sapiens, UniProt Q14833); settings: literature, functional models; cited from earlier work
Chain of mGlu4a (Q14833 33-912): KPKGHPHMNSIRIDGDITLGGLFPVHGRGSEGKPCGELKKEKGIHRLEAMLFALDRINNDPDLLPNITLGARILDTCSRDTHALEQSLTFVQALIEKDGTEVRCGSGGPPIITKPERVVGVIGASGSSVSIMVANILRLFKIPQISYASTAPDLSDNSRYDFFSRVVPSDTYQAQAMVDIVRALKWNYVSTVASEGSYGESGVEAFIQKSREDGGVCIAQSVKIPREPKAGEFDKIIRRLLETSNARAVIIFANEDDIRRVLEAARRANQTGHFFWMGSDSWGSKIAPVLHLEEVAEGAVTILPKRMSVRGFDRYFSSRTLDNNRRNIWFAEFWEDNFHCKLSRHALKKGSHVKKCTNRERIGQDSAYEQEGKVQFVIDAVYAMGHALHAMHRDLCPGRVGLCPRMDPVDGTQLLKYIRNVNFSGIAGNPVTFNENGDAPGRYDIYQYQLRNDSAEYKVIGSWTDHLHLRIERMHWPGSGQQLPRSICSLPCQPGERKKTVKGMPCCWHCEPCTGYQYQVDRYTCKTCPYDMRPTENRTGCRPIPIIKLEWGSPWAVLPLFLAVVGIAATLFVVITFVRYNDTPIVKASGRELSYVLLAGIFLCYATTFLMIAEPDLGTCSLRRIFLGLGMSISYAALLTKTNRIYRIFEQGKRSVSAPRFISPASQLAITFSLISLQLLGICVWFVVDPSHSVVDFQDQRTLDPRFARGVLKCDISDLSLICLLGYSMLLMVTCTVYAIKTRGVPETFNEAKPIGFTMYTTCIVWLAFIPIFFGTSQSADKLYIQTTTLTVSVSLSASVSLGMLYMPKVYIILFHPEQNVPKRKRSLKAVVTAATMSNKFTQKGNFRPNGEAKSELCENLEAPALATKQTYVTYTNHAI

mGlu6 = mGlu6 (Homo sapiens, UniProt O15303); settings: literature, functional models; cited from earlier work
mGlu7 = mGlu7 (Homo sapiens, UniProt Q14831); settings: literature, functional models; cited from earlier work
Chain of mGlu7 (Q14831 35-915): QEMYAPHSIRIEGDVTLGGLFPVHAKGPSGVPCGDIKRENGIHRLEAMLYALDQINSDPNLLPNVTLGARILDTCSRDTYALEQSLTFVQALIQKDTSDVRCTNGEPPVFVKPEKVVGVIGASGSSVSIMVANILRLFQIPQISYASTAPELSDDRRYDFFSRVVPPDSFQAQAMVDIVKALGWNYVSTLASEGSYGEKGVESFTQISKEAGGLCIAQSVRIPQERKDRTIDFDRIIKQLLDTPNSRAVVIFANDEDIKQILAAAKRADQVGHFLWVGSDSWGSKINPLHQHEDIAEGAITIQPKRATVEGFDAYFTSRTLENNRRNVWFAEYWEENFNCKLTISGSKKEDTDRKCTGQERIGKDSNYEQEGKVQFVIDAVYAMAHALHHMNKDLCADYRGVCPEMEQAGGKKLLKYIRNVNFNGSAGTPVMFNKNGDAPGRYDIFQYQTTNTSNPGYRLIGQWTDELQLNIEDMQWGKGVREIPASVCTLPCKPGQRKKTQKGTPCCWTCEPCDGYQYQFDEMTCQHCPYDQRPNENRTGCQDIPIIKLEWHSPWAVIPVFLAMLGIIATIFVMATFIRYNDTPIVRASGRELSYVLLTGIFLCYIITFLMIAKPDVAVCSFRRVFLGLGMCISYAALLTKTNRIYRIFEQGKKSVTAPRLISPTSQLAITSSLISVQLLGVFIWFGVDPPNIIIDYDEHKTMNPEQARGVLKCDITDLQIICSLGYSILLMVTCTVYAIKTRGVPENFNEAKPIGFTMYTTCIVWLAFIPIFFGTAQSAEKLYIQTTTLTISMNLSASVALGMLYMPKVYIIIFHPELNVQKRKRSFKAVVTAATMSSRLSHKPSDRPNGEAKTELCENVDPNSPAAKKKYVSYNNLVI

mGlu8 = mGlu8 (Homo sapiens, UniProt O00222); settings: literature, functional models; cited from earlier work
Chain of mGlu8 (O00222 34-908): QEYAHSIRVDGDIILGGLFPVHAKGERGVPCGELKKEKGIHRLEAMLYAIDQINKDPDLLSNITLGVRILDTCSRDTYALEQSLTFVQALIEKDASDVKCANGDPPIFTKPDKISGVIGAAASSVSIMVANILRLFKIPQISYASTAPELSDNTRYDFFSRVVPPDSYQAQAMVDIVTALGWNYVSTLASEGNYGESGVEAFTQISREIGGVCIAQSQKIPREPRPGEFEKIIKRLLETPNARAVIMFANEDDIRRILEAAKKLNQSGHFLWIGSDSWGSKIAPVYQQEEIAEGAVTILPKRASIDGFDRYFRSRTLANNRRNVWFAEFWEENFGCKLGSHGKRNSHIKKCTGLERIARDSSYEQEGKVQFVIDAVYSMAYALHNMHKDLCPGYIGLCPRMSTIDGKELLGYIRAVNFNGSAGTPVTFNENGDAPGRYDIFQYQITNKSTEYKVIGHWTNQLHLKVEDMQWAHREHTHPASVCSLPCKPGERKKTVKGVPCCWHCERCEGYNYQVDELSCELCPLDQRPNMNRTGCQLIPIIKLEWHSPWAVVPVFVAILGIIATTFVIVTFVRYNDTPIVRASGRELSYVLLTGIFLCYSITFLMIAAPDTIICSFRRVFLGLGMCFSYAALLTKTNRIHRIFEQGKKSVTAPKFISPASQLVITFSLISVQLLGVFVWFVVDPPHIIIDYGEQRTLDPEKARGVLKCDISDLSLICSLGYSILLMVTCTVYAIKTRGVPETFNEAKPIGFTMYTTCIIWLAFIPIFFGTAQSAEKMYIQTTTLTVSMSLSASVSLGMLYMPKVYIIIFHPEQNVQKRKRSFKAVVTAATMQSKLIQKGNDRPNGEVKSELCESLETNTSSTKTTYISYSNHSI

mGlu5 [4] = biological target: T1, mGlu5; test: biochemical
Method: as §1, §2, §3, §4

## Cc1nc(C#Cc2cccnc2)cs1 [MTEP, 3-(2-methylthiazol-4-yl)ethynylpyridine]
[1]; 30 μg/kg i.v.
  BLADDER CONTRACTIONS quiescence time: 5.52 ± 1.09 min
[1]; 100 μg/kg i.v.
  BLADDER CONTRACTIONS quiescence time: 8.73 ± 2.11 min
[1]; 300 μg/kg i.v.
  BLADDER CONTRACTIONS quiescence time: 13.90 ± 2.10 min
[1]; 1000 μg/kg i.v.
  BLADDER CONTRACTIONS quiescence time: 20.96 ± 4.66 min
[1]; i.v., anaesthetised rats
  activity as inhibitors of isovolumic voiding contractions (in words): active
[1]; i.v.
  ED10min (extrapolated dose inducing 10 min of bladder quiescence): 0.106 mg/kg
mGlu5 [2]
  inhibition of the specific binding of [3H]MPEP to mGlu5 receptor (in words): most potent inhibitors

## CN1CC[C@]23c4c5ccc(O)c4O[C@H]2[C@@H](O)C=C[C@H]3[C@H]1C5 [Morphine]
[1]; 10 μg/kg i.v.
  BLADDER CONTRACTIONS quiescence time: 2.76 ± 0.93 min
[1]; 30 μg/kg i.v.
  BLADDER CONTRACTIONS quiescence time: 6.89 ± 2.11 min
[1]; 100 μg/kg i.v.
  BLADDER CONTRACTIONS quiescence time: 13.83 ± 2.40 min
[1]; 300 μg/kg i.v.
  BLADDER CONTRACTIONS quiescence time: 18.17 ± 3.60 min
[1]; i.v.
  ED10min (extrapolated dose inducing 10 min of bladder quiescence): 0.05 mg/kg

## Cc1cccc(C=Cc2ccccc2)n1 [SIB 1893, 2-methyl-6-(2-phenylethenyl)pyridine]
mGlu1
  Ki: > 10 µM
[3]; rat forebrain, [3H]LY341495
  Ki: > 10 µM
[1]; 1000 μg/kg i.v.
  BLADDER CONTRACTIONS quiescence time: 4.44 ± 1.05 min
[1]; 2000 μg/kg i.v.
  BLADDER CONTRACTIONS quiescence time: 8.00 ± 0.78 min
[1]; 3000 μg/kg i.v.
  BLADDER CONTRACTIONS quiescence time: 15.57 ± 1.34 min
[1]; i.v., anaesthetised rats
  activity as inhibitors of isovolumic voiding contractions (in words): active
  amplitude of contractions when contractions resumed, relative to before treatment (in words): no difference in the amplitude
[1]; i.v.
  ED10min (extrapolated dose inducing 10 min of bladder quiescence): 1.928 mg/kg
Conscious rats; 50 mg/kg i.v., FIG. 1
  bladder volume capacity (BVC): significantly increased the BVC only in comparison with the basal values
Conscious rats; i.v., MPEP 3 and 10 mg/kg, SIB 1893 50 mg/kg, FIG. 2
  micturition pressure (MP): only mild effects on the micturition pressure
mGlu5 [2]
  inhibition of the specific binding of [3H]MPEP to mGlu5 receptor (in words): weaker affinity
mGlu1a
  IC50: > 30 µM
mGlu5a
  IC50: 0.3 µM
mGlu2
  IC50: > 30 µM
mGlu4a
  IC50: > 30 µM
mGlu6
  IC50: > 30 µM
mGlu7
  IC50: > 30 µM
mGlu8
  IC50: > 30 µM
mGlu5 [4]
  Ki: 0.859 µM

## N[C@](CC1c2ccccc2Oc2ccccc21)(C(=O)O)[C@H]1C[C@@H]1C(=O)O [[^3H]LY341495]
[3]; rat forebrain membranes, saturable binding, read-out: Kd of radioligand binding to mGlu2+mGlu3 subtypes
  Kd: 0.0025 µM
